Assay [1] has as its target Bromodomain-containing protein 4 (Homo sapiens, UniProt O60885). The assay is described as follows: Inhibition of BRD4 (unknown origin) by HTRF analysis. In general terms: Time-resolved FRET reads energy transfer from a long-lived donor to a nearby acceptor.
Assay [2] addresses Histone-lysine N-methyltransferase EZH2 (Homo sapiens, UniProt Q15910). Nature of the assay: Inhibition of EZH2 (unknown origin) by radiometric assay.

The IC50 is the point on the concentration scale where inhibition reaches its midpoint.

Sequence of Histone-lysine N-methyltransferase EZH2 (Q15910 whole entry): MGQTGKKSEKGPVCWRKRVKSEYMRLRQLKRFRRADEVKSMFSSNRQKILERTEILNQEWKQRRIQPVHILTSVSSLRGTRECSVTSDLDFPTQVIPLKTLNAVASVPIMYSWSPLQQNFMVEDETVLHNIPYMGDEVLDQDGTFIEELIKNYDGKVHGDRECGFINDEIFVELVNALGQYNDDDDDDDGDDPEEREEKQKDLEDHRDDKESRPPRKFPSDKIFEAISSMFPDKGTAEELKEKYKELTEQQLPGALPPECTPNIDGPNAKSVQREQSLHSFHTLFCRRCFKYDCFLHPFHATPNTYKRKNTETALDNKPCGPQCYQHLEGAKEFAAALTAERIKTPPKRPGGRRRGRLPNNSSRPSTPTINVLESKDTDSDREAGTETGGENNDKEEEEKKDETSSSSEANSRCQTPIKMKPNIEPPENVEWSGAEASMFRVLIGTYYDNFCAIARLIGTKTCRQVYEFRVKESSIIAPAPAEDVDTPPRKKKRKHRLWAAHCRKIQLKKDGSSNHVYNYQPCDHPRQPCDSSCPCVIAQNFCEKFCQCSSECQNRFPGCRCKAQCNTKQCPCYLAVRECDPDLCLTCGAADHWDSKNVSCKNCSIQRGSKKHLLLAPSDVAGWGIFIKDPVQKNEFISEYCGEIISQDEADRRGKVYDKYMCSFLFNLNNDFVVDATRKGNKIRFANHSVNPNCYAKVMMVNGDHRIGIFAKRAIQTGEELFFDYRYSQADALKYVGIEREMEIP

Regarding `CCCC(C)n1ccc2c(C(=O)NCc3c(C)cc(C)[nH]c3=O)cc(-c3cn(C)c(=O)c4[nH]ccc34)cc21` (configuration not stated), the IC50 in assay [1] came out at 173 nM; in assay [2] it was 2.8 nM.
Consider `Cc1cc(C)c(CNC(=O)c2cc(-c3cn(C)c(=O)c4[nH]ccc34)cc3[nH]cc(C)c23)c(=O)[nH]1`, for which the IC50 was greater than 300 nM in assay [1] and greater than 100 nM in assay [2].
With `Cc1[nH]c(=O)c(CNC(=O)c2cc(-c3cn(C)c(=O)c4[nH]ccc34)cc3c2ccn3C2CCCC2)c2c1CCCC2`, the figures for the IC50 in assay [1] and in assay [2] were greater than 300 nM and 8.3 nM, respectively.
Consider `Cc1[nH]c(=O)c(CNC(=O)c2cc(-c3cn(C)c(=O)c4[nH]ccc34)cc3c2cnn3C2CCCC2)c2c1CCCC2`, for which the values for the IC50 in assay [1] and in assay [2] were greater than 300 nM and 46 nM, respectively.
Regarding `CCC(C)n1cc(C)c2c(C(=O)NCc3c(C)cc(C)[nH]c3=O)cc(-c3cn(C)c(=O)c4[nH]ccc34)cc21` (configuration not stated), the 50% inhibitory concentration (IC50) in assay [1] was greater than 300 nM; in assay [2], 1.1 nM.
With `Cc1[nH]c(=O)c(CNC(=O)c2cc(-c3cn(C)c(=O)c4[nH]ccc34)cc3[nH]cc(C)c23)c2c1CCCC2`, the IC50 in assay [1] was greater than 300 nM; in assay [2] it was greater than 100 nM.
Consider `Cc1[nH]c(=O)c(CNC(=O)c2cc(-c3cn(C)c(=O)c4[nH]ccc34)cc3[nH]ccc23)c2c1CCCC2`, for which the half-inhibitory concentration (IC50) in assay [1] was greater than 300 nM; in assay [2], 100 nM.
Regarding `CCC(C)n1cc(C)c2c(C(=O)NCc3c4c(c(C)[nH]c3=O)CCCC4)cc(-c3cn(C)c(=O)c4[nH]ccc34)cc21` (configuration not stated), the IC50 in assay [1] is greater than 300 nM; in assay [2], 7.9 nM.
`Cc1cc(C)c(CNC(=O)c2cc(-c3cn(C)c(=O)c4[nH]ccc34)cc3c2ccn3C(C)C)c(=O)[nH]1`: the figures for the half-maximal inhibitory concentration (IC50) in assay [1] and in assay [2] were 214 nM and 5.7 nM, respectively.
Regarding `Cc1[nH]c(=O)c(CNC(=O)c2cc(-c3cn(C)c(=O)c4[nH]ccc34)cc3c2c(C)cn3CC2CCCCC2)c2c1CCCC2`, the figures for the IC50 in assay [1] and in assay [2] were greater than 300 nM and greater than 100 nM, respectively.
As to `Cc1cc(C)c(CNC(=O)c2cc(-c3cn(C)c(=O)c4[nH]ccc34)cc3c2cnn3C2CCCC2)c(=O)[nH]1`, the results for the IC50 in assay [1] and in assay [2] were greater than 300 nM and 37 nM, respectively.
On to `Cc1[nH]c(=O)c(CNC(=O)c2cc(-c3cn(C)c(=O)c4[nH]ccc34)cc3c2ccn3C(C)C)c2c1CCCC2`, for which the IC50 is greater than 300 nM in assay [1] and 12.3 nM in assay [2].
Take `CCC(CC)n1ccc2c(C(=O)NCc3c(C)cc(C)[nH]c3=O)cc(-c3cn(C)c(=O)c4[nH]ccc34)cc21`: the IC50 in assay [1] was found to be 154 nM; in assay [2] it was 3 nM.
With `Cc1cc(C)c(CNC(=O)c2cc(-c3cn(C)c(=O)c4[nH]ccc34)cc3c2ccn3C2CCCC2)c(=O)[nH]1`, the concentration for half-maximal inhibition (IC50) was 278 nM in assay [1] and 5 nM in assay [2].
For `CCC(CC)n1ccc2c(C(=O)NCc3c4c(c(C)[nH]c3=O)CCCC4)cc(-c3cn(C)c(=O)c4[nH]ccc34)cc21`, the IC50 is greater than 300 nM in assay [1] and 16 nM in assay [2].
Turning to `Cc1cc(C)c(CNC(=O)c2cc(-c3cn(C)c(=O)c4[nH]ccc34)cc3[nH]ccc23)c(=O)[nH]1`, the figures for the 50% inhibitory concentration (IC50) in assay [1] and in assay [2] were greater than 300 nM and 83 nM, respectively.
The like results for `CCCC(C)n1ccc2c(C(=O)NCc3c4c(c(C)[nH]c3=O)CCCC4)cc(-c3cn(C)c(=O)c4[nH]ccc34)cc21` (configuration not stated) were, in that order, greater than 300 nM and 9.3 nM.
In the case of `Cc1[nH]c(=O)c(CNC(=O)c2cc(-c3cn(C)c(=O)c4[nH]ccc34)cc3c2ccn3CC2CCCCC2)c2c1CCCC2`, the IC50 is greater than 300 nM in assay [1] and 80 nM in assay [2].
In the case of `CCC(C)n1ccc2c(C(=O)NCc3c4c(c(C)[nH]c3=O)CCCC4)cc(-c3cn(C)c(=O)c4[nH]ccc34)cc21` (configuration not stated), the IC50 in assay [1] was greater than 300 nM; in assay [2] it was 5.2 nM.
The like results for `Cc1cc(C)c(CNC(=O)c2cc(-c3cn(C)c(=O)c4[nH]ccc34)cc3c2c(C)cn3CC2CCCCC2)c(=O)[nH]1` were, in that order, greater than 300 nM and 12 nM.
`Cc1cc(C)c(CNC(=O)c2cc(-c3cn(C)c(=O)c4[nH]ccc34)cc3c2ccn3CC2CCCCC2)c(=O)[nH]1`: the results for the IC50 in assay [1] and in assay [2] were 187 nM and 63 nM, respectively.

For the origin of these results see ChEMBL document CHEMBL5316343, “Design, Synthesis, and Biological Evaluation of a Potent Dual EZH2-BRD4 Inhibitor for the Treatment of Some Solid Tumors” (J Med Chem, 2023).
